This passage reports OSI induction time and peroxide values results from US20080014323A1, “ANTIOXIDANT COMBINATIONS FOR USE IN FEED RATIONS TO IMPROVE ANTIOXIDANT STATUS OF RUMINANTS” (NOVUS INTERNATIONAL INC., priority 2006, published 2008).

The nature of test [1]: Oil stability index (OSI) induction time. Conditions: soybean oil; 500 ppm; FIG. 1. Format: physicochemical.
Test [2] is described as follows: Active oxygen method (AOM): peroxide value of oils or fats after oxidative stress. Format: physicochemical. As to conditions: soybean oil subjected to oxidative stress; 500 ppm; FIG. 1.

For `CCOc1ccc2c(c1)C(C)=CC(C)(C)N2` [ETX, 6-ethoxy-1,2-dihydro-2,2,4-trimethylquinoline], the OSI induction time entry in test [1] is “about 6 hr”. For the same compound, the peroxide values entry in test [2] is “about 11 meq”.
